In the supplement of paper PMC10949913:

Experiments:
Conditions in all cases: 48 h
CU-ACC1 [1] = test: AC50 viability; higher = less potent
Summary of the method: (§1)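 Three adrenocortical carcinoma cell lines in 1,536-well plates received 23 nL of each library compound at 11 concentrations and were read with CellTiter-Glo after 48 h, with 15 minutes at room temperature before measuring luminescence. Vehicle and empty-well controls served for per-plate normalisation. AC50 and area under the curve were extracted from fitted concentration-response curves, discarding all curve classes other than inhibitory or non-responding.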

CU-ACC2 [2] = test: AC50 viability; higher = less potent
Summary of the method: as §1

NCI-H295R [3] = test: AC50 viability; higher = less potent
Summary of the method: as §1

CU-ACC1 [4] = test: area under concentration-response curve (viability) (AUC (a.u.)); higher = less active
Summary of the method: as §1

CU-ACC2 [5] = test: as above
Summary of the method: as §1

NCI-H295R [6] = test: as above
Summary of the method: as §1

Structure (SMILES)	AC50 viability (CU-ACC1 [1]) [µM]	AC50 viability (CU-ACC2 [2]) [µM]	AC50 viability (NCI-H295R [3]) [µM]	area under concentration-response curve (CU-ACC1 [4])	area under concentration-response curve (CU-ACC2 [5])	area under concentration-response curve (NCI-H295R [6])
CC(C)c1cc(C(=O)N2Cc3ccc(CN4CCN(C)CC4)cc3C2)c(O)cc1O	2.35	0.833	3.72	371	445	445
COC(=O)C/1=C(C)/N/C(=C(\C1C2=CC(=CC=C2)[N+]([O-])=O)C(=O)OCCCN3CCC(CC3)(C4=CC=CC=C4)C5=CC=CC=C5)C (configuration not stated)	13.2	16.6	7.42	426	374	465
COc1ccc(-c2cc3c(C)nc(N)nc3n([C@H]3CC[C@H](OCCO)CC3)c2=O)cn1	0.295	0.59	0.235	425	446	435
CC(C)(C)c1cnc(CSc2cnc(NC(=O)C3CCNCC3)s2)o1	2.63	1.48	7.42	386	352	387
C[C@@H]1C[C@H]2[C@@H]3\C=C(C)/C4=C/C5=C(C[C@]4(C)[C@H]3[C@@H](O)C[C@]2(C)[C@@]1(O)C(=O)CO)C=N[N]5C6=CC=CC=C6	26.3	23.5	11.8	435	563	474
COc1cc2c(Nc3ccc(Cl)c(Cl)c3F)ncnc2cc1OC[C@@H]1C[C@@H]2CN(C)C[C@@H]2C1	9.34	13.2	14.8	407	449	430
Cc1nc(NC(=O)N2CCC[C@H]2C(N)=O)sc1-c1ccnc(C(C)(C)C(F)(F)F)c1	8.33	9.34	18.6	439	457	421
CC(C)C[C@H](NC(=O)CNC(=O)c1cc(Cl)ccc1Cl)B1OC(=O)CC(CC(=O)O)(C(=O)O)O1 (some centres not stated)	0.263	0.332	0.372	302	380	413
CC[C@@]1(O)C[C@H](O[C@H]2C[C@H](N(C)C)[C@H](O[C@H]3C[C@H](O)[C@H](O[C@H]4CCC(=O)[C@H](C)O4)[C@H](C)O3)[C@H](C)O2)c2c(cc3c(c2O)C(=O)c2c(O)cccc2C3=O)[C@H]1C(=O)OC	23.5	16.6	16.6	453	533	523
CCOC1=CC=CC=C1N\2C(=O)C3=C(C=CC=C3)\N=C2C(C)N4CCN(CC4)C(=O)COC5=CC=C(Cl)C=C5 (configuration not stated)	0.934	2.95	5.9	373	509	448
CNC(=O)c1cc(Oc2ccc(NC(=O)Nc3ccc(Cl)c(C(F)(F)F)c3)cc2)ccn1	18.6	23.5	18.6	518	521	539
CC(=O)c1ccc2c(c1)c1cc(C(C)=O)ccc1n2CCNC(C)C	2.09	2.95	2.35	405	415	421
C=C1C(=O)O[C@@H]2[C@H]3O[C@]3(C)CC/C=C(\C)CC[C@@H]12	14.8	7.42	9.34	375	522	497
Oc1ccc(-c2ccc(-c3cc(Nc4cccc(CNC5CC5)c4)[nH]n3)cc2)c(O)c1	14.8	10.5	18.6	498	556	531
CC[C@@]1(O)C(=O)OC/C2=C1/C=C3\N(CC4=C5[C@@H](N)CCC6=C5C(=CC(=C6C)F)N=C34)C2=O	2.09	2.35	3.72	388	486	437
CC1(C)CC\C2=C(/O1)C3=C(C=CC=C3)C(=O)C2=O	6.61	16.6	33.2	333	515	535
O=C(/C=C/c1ccc(CN(CCO)CCc2c[nH]c3ccccc23)cc1)NO	0.332	0.59	1.66	293	345	380
c1cc(-c2cnn3cc(-c4ccc(OCCN5CCCCC5)cc4)cnc23)ccn1	11.8	9.34	10.5	404	456	450
NC(=O)c1cccc2c(NC(CN3CCC3)c3ccc(Cl)c(C(F)(F)F)c3)ncnc12 (configuration not stated)	0.263	0.332	1.18	266	160	223
CN(c1ncccc1CNc1nc(Nc2ccc3c(c2)CC(=O)N3)ncc1C(F)(F)F)[S+](C)(=O)[O-]	13.2	6.61	14.8	404	422	430
CC1=NN=C(C[C@@H]2\C=C(C3=CC=C(Cl)C=C3)/C4=CC=CC=C4[N]5C(=NN=C25)C)O1	5.9	3.32	5.25	433	447	368
Cc1cnc(Nc2ccc(OCCN3CCCC3)cc2)nc1Nc1cccc([S+](=O)([O-])NC(C)(C)C)c1	16.6	8.33	8.33	491	547	501
CC[S+](=O)([O-])N1CCN(c2ccc(Nc3ncc(C(N)=O)c(NC4CC4)n3)cc2)CC1	20.9	26.3	16.6	474	561	499
NC(=O)/C(=C/n1cnc(-c2cc(C(F)(F)F)cc(C(F)(F)F)c2)n1)c1cncnc1	11.8	5.9	9.34	322	459	438
CNC(=O)c1ccccc1Nc1nc(Nc2ccc(N3CCOCC3)cc2OC)ncc1Cl	16.6	4.17	0.525	435	483	452
C=CC(=O)Nc1cccc(Nc2nc(Nc3ccc(NC4CN(CCF)C4)cc3OC)ncc2C(F)(F)F)c1	9.34	14.8	8.33	398	386	446

Structure (SMILES)	AC50 viability (CU-ACC1 [1]) [µM]	AC50 viability (CU-ACC2 [2]) [µM]	AC50 viability (NCI-H295R [3]) [µM]	area under concentration-response curve (CU-ACC1 [4])	area under concentration-response curve (CU-ACC2 [5])	area under concentration-response curve (NCI-H295R [6])
CC(C)(O)/C=C\C(=O)[C@](C)(O)[C@H]1[C@H](O)C[C@]2(C)[C@@H]3CC=C4[C@@H](C=C(O)C(=O)C4(C)C)[C@]3(C)C(=O)C[C@@]12C	0.372	0.332	5.25	316	377	406
CC(=O)NCC(=O)N1[C@@H]2CC[C@H]1c1ccc(Nc3ncc(C(F)(F)F)c(NC4CCC4)n3)cc12	18.6	10.5	16.6	502	443	459
CCc1ccc(OCc2ccccc2C(=O)Nc2ccc3nc(C)cc(N)c3c2)cc1	10.5	6.61	8.33	342	513	482
Cc1ccc(C(=O)Nc2cccc(C(F)(F)F)c2)cc1-c1ccc2nc(NCCN3CCOCC3)ncc2c1	10.5	18.6	18.6	481	576	546
c1ccc(-c2ccc(CNc3nc(-c4ccccn4)nnc3-c3ccccc3)cc2)cc1	2.35	14.8	4.17	385	504	461
COc1nc(OCc2cccc(-c3ccccc3)c2C)ccc1CNCCNC(C)=O	11.8	16.6	5.9	390	379	412
CN(C)C[C@@H]1CC[N]2C=C(C3=C2C=CC=C3)C/4=C(/C(=O)NC4=O)C5=C[N](CCO1)C6=C5C=CC=C6	14.8	8.33	7.42	292	389	368
CC(C)C1=N[N](C\2=C1C(=O)N\C(=N2)CC3=CC=C(OCCO)C=C3)C4=C(Cl)C=CC=C4Cl	0.0332	0.0209	0.0833	241	183	289
O[C@H]1CC[C@@H](Oc2cccc3cnc(Nc4ccc5nc[nH]c5c4)nc23)CC1	1.66	1.32	2.63	403	331	409
C[N]1N=C(C)C2=C1OC(=C(/C#N)C2C3=CC=C(C=C3)C(F)(F)F)/N (configuration not stated)	18.6	18.6	18.6	460	422	479
CCn1nnc2c(N3CCOCC3)nc(-c3ccc(NC(=O)Nc4ccc(C(=O)N5CCN(C)CC5)cc4)cc3)nc21	1.18	0.468	5.9	357	434	453
Cc1cc(O[C@@H](CCC(F)(F)F)c2ccc(C(=O)NCCC(=O)O)cc2)cc(C)c1-c1ccc(C(C)(C)C)cc1	18.6	23.5	11.8	382	409	384
CCc1cc(-c2n[nH]c(C)c2-c2ccc3c(c2)OCCO3)c(O)cc1O	23.5	23.5	20.9	529	611	565
COc1cc2c(Oc3ccc4[nH]c(C)cc4c3F)ncnc2cc1OCCCN1CCCC1	20.9	20.9	20.9	491	566	461
Cc1cc(Cl)ccc1OCCCC(=O)NO	20.9	18.6	20.9	442	512	495
CCC(C1CCC(C)C(O1)C(C)C(O)C(C)C(=O)C(CC)C2OC\3(O[C@]4(CC[C@@](C)(O4)C5CC[C@@](O)(CC)C(C)O5)C(O)\C=C3)C(C)CC2C)C([O-])=O (some centres not stated)	5.25	5.9	8.33	291	473	456
COc1cccc2c(NCc3ccccc3)nc(-n3c(N)nc4ccccc43)nc12	3.32	3.72	3.32	373	450	402
CCCCC(=O)OCC(=O)[C@]1(O)Cc2c(O)c3c(c(O)c2[C@@H](O[C@H]2C[C@H](NC(=O)C(F)(F)F)[C@H](O)[C@H](C)O2)C1)C(=O)c1c(OC)cccc1C3=O	7.42	9.34	16.6	373	544	537
C[C@@H]1C[C@@H]([C@H](O)CC2CC(=O)NC(=O)C2)C(=O)[C@@H](C)C1	1.05	0.59	2.95	345	333	405
C=CC(=O)N1CCC(Oc2cc3c(Nc4ccc(Cl)c(Cl)c4F)ncnc3cc2OC)CC1	4.68	20.9	20.9	400	532	440
COC(=O)[C@]12CCC(C)(C)C[C@H]1[C@H]3C(=O)\C=C\4[C@@](C)(CC[C@H]5C(C)(C)C(=O)\C(=C/[C@]45C)C#N)[C@]3(C)CC2	20.9	16.6	13.2	402	375	412
CC(C)(O)c1cc2nc(-c3cnc(N)nc3)nc(N3CCOCC3)c2s1	1.32	2.63	1.05	434	379	423
O=C(/C=C/C#Cc1cccc(N[S+](=O)([O-])c2ccccc2)c1)NO	4.07	6.45	4.56	497	544	542
O=C(NO)c1cnc(NC2(c3ccccc3)CC2)nc1	11.8	16.6	5.25	423	499	465
CC(N[C@H]1CCCC[C@@H]1NC(=O)c1ccc(Cl)cc1)c1cccc2ccccc12 (some centres not stated)	33.2	23.5	18.6	432	550	422
Cc1ccc(NC(=O)Nc2cc(C(F)(F)F)ccc2F)cc1Nc1ccc2c(c1)NC(=O)/C2=C\c1ccc[nH]1	14.8	23.5	13.2	441	506	476
